The source of these data is patent US12252524B2, “GIP/GLP1 co-agonist compounds” (Eli Lilly and Company, priority 2018, dated 2025).

Numbered stars: 1 amine (or outer) side, 2 acyl side, 3 side chain; on linkers, the order of the positions; unused ones are H or OH. Square brackets hold non-standard residues; d marks the D form. Side chains are listed from the residue outwards. Peptide text beside a SMILES is read from it. * marks the point of attachment. C20 diacid = O=C(O)CCCCCCCCCCCCCCCCCCC(=O)*; C18 diacid = O=C(O)CCCCCCCCCCCCCCCCC(=O)*; γGlu = O=C(O)[C@H](CCC(=O)[*:2])N[*:1]; αMeY = C[C@](N)(Cc1ccc(O)cc1)C(=O)O; αMeL = CC(C)C[C@](C)(N)C(=O)O; Orn = NCCC[C@H](N)C(=O)O; AEEA = NCCOCCOCC(=O)O; Aib = CC(C)(N)C(=O)O

Assay [1] addresses human GLP-1 receptor (GLP-1R) (Homo sapiens, UniProt P43220). Briefly: cAMP pharmacological functional assay in presence of casein, hGLP-1R. It is filed as cell-based. Conditions: HEK293 cells expressing hGLP-1R, 0.1% Casein, geometric mean; read-out: hGLP1R cAMP Rel EC50 nM (SEM, n).
Assay [2] concerns the target T1, gastric inhibitory peptide receptor (GIPR) (Homo sapiens, UniProt P48546).
T1 sequence (P48546 22-466): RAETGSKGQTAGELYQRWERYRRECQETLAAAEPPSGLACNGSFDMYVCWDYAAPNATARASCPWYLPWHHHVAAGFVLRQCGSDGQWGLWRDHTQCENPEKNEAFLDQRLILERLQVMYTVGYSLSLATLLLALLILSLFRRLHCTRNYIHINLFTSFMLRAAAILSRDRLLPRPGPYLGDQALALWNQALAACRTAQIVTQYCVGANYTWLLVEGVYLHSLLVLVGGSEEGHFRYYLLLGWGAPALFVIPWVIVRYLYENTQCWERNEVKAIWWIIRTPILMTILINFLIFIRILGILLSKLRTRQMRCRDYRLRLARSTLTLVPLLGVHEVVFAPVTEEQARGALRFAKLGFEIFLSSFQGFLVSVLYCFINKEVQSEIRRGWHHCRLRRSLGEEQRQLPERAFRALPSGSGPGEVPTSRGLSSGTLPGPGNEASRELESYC
Kind of assay: cAMP pharmacological functional assay in presence of casein, hGIPR. The assay is classed as cell-based. Conditions: HEK293 cells expressing hGIPR, 0.1% Casein, geometric mean; read-out: hGIPR cAMP Rel EC50 nM (SEM, n).

The target in assay [3] is T2, human GLP-1R (Homo sapiens, UniProt P43220). Briefly: GLP-1R CHO cell β-arrestin recruitment assay. It is filed as cell-based. Also noted: host or cells: CHO-K1 PathHunter cells, assay-ready frozen. To be noted: for EC50: CHO-K1 cells, PathHunter β-arrestin-2 recruitment, 0.1% casein, read-out: hGLP1R B-Arrestin2 Rel EC50 uM (SEM, n); for hGLP1R B-Arrestin2 % Top: normalized to GLP-1 maximum control. Put shortly:
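PathHunter CHO-K1 cells with ProLink-tagged human GLP-1R and enzyme-acceptor-tagged β-arrestin-2 treated with serially diluted peptides in assay buffer containing 0.1% hydrolyzed casein, 90 min at 37 °C.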
(In general: Arrestin recruitment assays detect the binding of arrestin to an activated receptor.)

Assay [4] addresses T2, human GLP-1R. Kind of assay: GLP-1R HEK293 cell membrane [35S]GTPγS binding assay. Also noted: expressed in transfected cells; host or cells: HEK293 cells expressing human GLP-1R; membranes. The assay is classed as biochemical. To be noted: HEK293 cell membranes expressing human GLP-1R, [35S]GTPγS binding; read-out: hGLP1R GTPgS Rel EC50 nM (SEM, n). Put shortly: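 Membranes from HEK293 cells expressing the receptor incubated with peptide and […] [35S]GTPγS in HEPES pH 7.4 buffer with NaCl, MgCl2, saponin and BSA, 30 min at room temperature. Gαs-bound label captured by anti-Gαs antibody/SPA beads and counted; EC50 from four-parameter logistic fit.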
For orientation: GTPγS is a poorly hydrolysed GTP analogue; its binding reports G protein activation.

T2 sequence (P43220 24-463): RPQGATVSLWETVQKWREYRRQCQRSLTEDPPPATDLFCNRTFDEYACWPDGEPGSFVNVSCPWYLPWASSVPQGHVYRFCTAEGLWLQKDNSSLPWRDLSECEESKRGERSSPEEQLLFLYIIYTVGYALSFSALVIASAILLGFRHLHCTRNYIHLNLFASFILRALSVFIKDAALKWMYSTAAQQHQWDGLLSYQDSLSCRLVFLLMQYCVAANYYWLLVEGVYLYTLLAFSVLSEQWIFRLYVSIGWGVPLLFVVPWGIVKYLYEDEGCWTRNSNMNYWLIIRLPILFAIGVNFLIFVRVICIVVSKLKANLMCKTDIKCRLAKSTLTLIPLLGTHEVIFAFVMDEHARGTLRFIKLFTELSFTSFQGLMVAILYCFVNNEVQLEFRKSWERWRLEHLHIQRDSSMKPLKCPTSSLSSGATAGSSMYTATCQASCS
Chain of human GLP-1 receptor (GLP-1R) (P43220 24-463): as above

Regarding `CC[C@H](C)[C@H](NC(=O)[C@H](CC(C)C)NC(=O)[C@](C)(Cc1ccc(O)cc1)NC(=O)[C@H](CCC(=O)O)NC(=O)[C@@H](NC(=O)[C@H](Cc1ccccc1)NC(=O)[C@H](CCC(=O)O)NC(=O)C(C)(C)NC(=O)[C@H](CCC(N)=O)NC(=O)[C@H](C)NC(=O)[C@H](CCCCNC(=O)COCCOCCNC(=O)CC[C@H](NC(=O)CCCCCCCCCCCCCCCCCCC(=O)O)C(=O)O)NC(=O)[C@H](CCCCN)NC(=O)[C@H](CC(=O)O)NC(=O)[C@H](CC(C)C)NC(=O)[C@](C)(CC(C)C)NC(=O)[C@@H](NC(=O)[C@H](CO)NC(=O)[C@H](Cc1ccc(O)cc1)NC(=O)[C@H](CC(=O)O)NC(=O)[C@H](CO)NC(=O)[C@@H](NC(=O)[C@H](Cc1ccccc1)NC(=O)[C@@H](NC(=O)CNC(=O)[C@H](CCC(=O)O)NC(=O)C(C)(C)NC(=O)[C@H](N)Cc1ccc(O)cc1)[C@@H](C)O)[C@@H](C)O)[C@@H](C)CC)[C@@H](C)CC)C(=O)N[C@@H](C)C(=O)NCC(=O)NCC(=O)N1CCC[C@H]1C(=O)N[C@@H](CO)C(=O)N[C@@H](CO)C(=O)NCC(=O)N[C@@H](C)C(=O)N1CCC[C@H]1C(=O)N1CCC[C@H]1C(=O)N1CCC[C@H]1C(=O)N[C@@H](CO)C(N)=O` [Example 372] (H-[dY][Aib]EGTFTSDYSI[αMeL]LDKK([AEEA-γGlu-C20 diacid])AQ[Aib]EFIE[αMeY]LIAGGPSSGAPPPS-NH2), the concentration giving a half-maximal response (EC50) (usually the concentration at which the effect is half-maximal) in assay [1] is 0.365 nM; in assay [2], 0.0781 nM; at human GLP-1R [3], 0.00981 µM; on human GLP-1R [4] it was 0.379 nM. Further, the “hGLP1R B-Arrestin2 % Top” value on human GLP-1R [3] is 32.9%.
In the same order, the values of `CC[C@H](C)[C@H](NC(=O)[C@H](CC(C)C)NC(=O)[C@](C)(Cc1ccc(O)cc1)NC(=O)[C@H](CCC(=O)O)NC(=O)[C@@H](NC(=O)[C@H](Cc1ccccc1)NC(=O)[C@H](C)NC(=O)C(C)(C)NC(=O)[C@H](CCC(N)=O)NC(=O)[C@H](C)NC(=O)[C@H](CCCCNC(=O)COCCOCCNC(=O)CC[C@H](NC(=O)CCCCCCCCCCCCCCCCCCC(=O)O)C(=O)O)NC(=O)[C@H](CCCCN)NC(=O)[C@H](CC(=O)O)NC(=O)[C@H](CC(C)C)NC(=O)[C@](C)(CC(C)C)NC(=O)[C@@H](NC(=O)[C@H](CO)NC(=O)[C@H](Cc1ccc(O)cc1)NC(=O)[C@H](CC(=O)O)NC(=O)[C@H](CO)NC(=O)[C@@H](NC(=O)[C@H](Cc1ccccc1)NC(=O)[C@@H](NC(=O)CNC(=O)[C@H](CCC(=O)O)NC(=O)C(C)(C)NC(=O)[C@H](N)Cc1ccc(O)cc1)[C@@H](C)O)[C@@H](C)O)[C@@H](C)CC)[C@@H](C)CC)C(=O)N[C@@H](C)C(=O)NCC(=O)NCC(=O)N1CCC[C@H]1C(=O)N[C@@H](CO)C(=O)N[C@@H](CO)C(=O)NCC(=O)N[C@@H](C)C(=O)N1CCC[C@H]1C(=O)N1CCC[C@H]1C(=O)N1CCC[C@H]1C(=O)N[C@@H](CO)C(N)=O` [Example 373] (H-[dY][Aib]EGTFTSDYSI[αMeL]LDKK([AEEA-γGlu-C20 diacid])AQ[Aib]AFIE[αMeY]LIAGGPSSGAPPPS-NH2) are 0.436 nM, 0.185 nM, 0.00954 µM, 0.336 nM and 22.9%.
In the same order, the values of `CC[C@H](C)[C@H](NC(=O)[C@H](CC(C)C)NC(=O)[C@](C)(Cc1ccc(O)cc1)NC(=O)[C@H](CCC(=O)O)NC(=O)[C@@H](NC(=O)[C@H](Cc1ccccc1)NC(=O)[C@H](CCC(=O)O)NC(=O)C(C)(C)NC(=O)[C@H](CCC(N)=O)NC(=O)[C@H](C)NC(=O)[C@H](CCCCNC(=O)COCCOCCNC(=O)COCCOCCNC(=O)CC[C@H](NC(=O)CCCCCCCCCCCCCCCCC(=O)O)C(=O)O)NC(=O)[C@H](CCCCN)NC(=O)[C@H](CC(=O)O)NC(=O)[C@H](CC(C)C)NC(=O)[C@](C)(CC(C)C)NC(=O)[C@@H](NC(=O)[C@H](CO)NC(=O)[C@H](Cc1ccc(O)cc1)NC(=O)[C@H](CC(=O)O)NC(=O)[C@H](CO)NC(=O)[C@@H](NC(=O)[C@H](Cc1ccccc1)NC(=O)[C@@H](NC(=O)CNC(=O)[C@H](CCC(=O)O)NC(=O)C(C)(C)NC(=O)[C@H](N)Cc1ccc(O)cc1)[C@@H](C)O)[C@@H](C)O)[C@@H](C)CC)[C@@H](C)CC)C(=O)N[C@@H](C)C(=O)NCC(=O)NCC(=O)N1CCC[C@H]1C(=O)N[C@@H](CO)C(=O)N[C@@H](CO)C(=O)NCC(=O)N[C@@H](C)C(=O)N1CCC[C@H]1C(=O)N1CCC[C@H]1C(=O)N1CCC[C@H]1C(=O)N[C@@H](CO)C(N)=O` [Example 374] (H-[dY][Aib]EGTFTSDYSI[αMeL]LDKK([AEEA-AEEA-γGlu-C18 diacid])AQ[Aib]EFIE[αMeY]LIAGGPSSGAPPPS-NH2) are 0.19 nM, 0.0468 nM, 0.0218 µM, 0.345 nM and 34.7%.
As to `CC[C@H](C)[C@H](NC(=O)[C@H](CC(C)C)NC(=O)[C@](C)(Cc1ccc(O)cc1)NC(=O)[C@H](CCC(=O)O)NC(=O)[C@@H](NC(=O)[C@H](Cc1ccccc1)NC(=O)[C@H](CCC(=O)O)NC(=O)C(C)(C)NC(=O)[C@H](CCC(N)=O)NC(=O)[C@H](C)NC(=O)[C@H](CCCCNC(=O)COCCOCCNC(=O)COCCOCCNC(=O)CC[C@H](NC(=O)CCCCCCCCCCCCCCCCC(=O)O)C(=O)O)NC(=O)[C@H](CCCN)NC(=O)[C@H](CC(=O)O)NC(=O)[C@H](CC(C)C)NC(=O)[C@](C)(CC(C)C)NC(=O)[C@@H](NC(=O)[C@H](CO)NC(=O)[C@H](Cc1ccc(O)cc1)NC(=O)[C@H](CC(=O)O)NC(=O)[C@H](CO)NC(=O)[C@@H](NC(=O)[C@H](Cc1ccccc1)NC(=O)[C@@H](NC(=O)CNC(=O)[C@H](CCC(=O)O)NC(=O)C(C)(C)NC(=O)[C@H](N)Cc1ccc(O)cc1)[C@@H](C)O)[C@@H](C)O)[C@@H](C)CC)[C@@H](C)CC)C(=O)N[C@@H](C)C(=O)NCC(=O)NCC(=O)N1CCC[C@H]1C(=O)N[C@@H](CO)C(=O)N[C@@H](CO)C(=O)NCC(=O)N[C@@H](C)C(=O)N1CCC[C@H]1C(=O)N1CCC[C@H]1C(=O)N1CCC[C@H]1C(=O)N[C@@H](CO)C(N)=O` [Example 375] (H-[dY][Aib]EGTFTSDYSI[αMeL]LD[Orn]K([AEEA-AEEA-γGlu-C18 diacid])AQ[Aib]EFIE[αMeY]LIAGGPSSGAPPPS-NH2), the concentration giving a half-maximal response (EC50) in assay [1] was 0.152 nM; in assay [2], 0.0471 nM; at human GLP-1R [3], 0.0114 µM; on human GLP-1R [4] it was 0.419 nM. Moreover, at human GLP-1R [3], the “hGLP1R B-Arrestin2 % Top” value was 24.2%.
In the same order, the values of `CC[C@H](C)[C@H](NC(=O)[C@H](CC(C)C)NC(=O)[C@](C)(Cc1ccc(O)cc1)NC(=O)[C@H](CCC(=O)O)NC(=O)[C@@H](NC(=O)[C@H](Cc1ccccc1)NC(=O)[C@H](C)NC(=O)C(C)(C)NC(=O)[C@H](CCC(N)=O)NC(=O)[C@H](C)NC(=O)[C@H](CCCCNC(=O)COCCOCCNC(=O)COCCOCCNC(=O)CC[C@H](NC(=O)CCCCCCCCCCCCCCCCC(=O)O)C(=O)O)NC(=O)[C@H](CCCCN)NC(=O)[C@H](CC(=O)O)NC(=O)[C@H](CC(C)C)NC(=O)[C@](C)(CC(C)C)NC(=O)[C@@H](NC(=O)[C@H](CO)NC(=O)[C@H](Cc1ccc(O)cc1)NC(=O)[C@H](CC(=O)O)NC(=O)[C@H](CO)NC(=O)[C@@H](NC(=O)[C@H](Cc1ccccc1)NC(=O)[C@@H](NC(=O)CNC(=O)[C@H](CCC(=O)O)NC(=O)C(C)(C)NC(=O)[C@H](N)Cc1ccc(O)cc1)[C@@H](C)O)[C@@H](C)O)[C@@H](C)CC)[C@@H](C)CC)C(=O)N[C@@H](C)C(=O)NCC(=O)NCC(=O)N1CCC[C@H]1C(=O)N[C@@H](CO)C(=O)N[C@@H](CO)C(=O)NCC(=O)N[C@@H](C)C(=O)N1CCC[C@H]1C(=O)N1CCC[C@H]1C(=O)N1CCC[C@H]1C(=O)N[C@@H](CO)C(N)=O` [Example 376] (H-[dY][Aib]EGTFTSDYSI[αMeL]LDKK([AEEA-AEEA-γGlu-C18 diacid])AQ[Aib]AFIE[αMeY]LIAGGPSSGAPPPS-NH2) are 0.17 nM, 0.0723 nM, 0.0123 µM, 0.326 nM and 25.6%.
